We go through four compounds from US20120202231A1, “SYNERGISTIC BIOMARKER ASSAY OF NEUROLOGICAL CONDITION USING S-100B” (priority 2009, published 2012).

The data set concerns Female Sprague-Dawley rats. As to conditions: for GFAP level relative to control animals / S-100b level relative to control animals / UCH-L1 level relative to control animals: rats, biofluids, 30, 60, 90, 120 min after dosing. On the procedure: Acute oral In vivo drug candidate screening for neurotoxicity. […] A total of four to eight animals of are used for each dose level investigated.
At 30, 60, 90, and 120 minutes following dosing, the rats are sacrificed by decapitation and blood is obtained by cardiac puncture. The levels of biofluids S-100β, UCH-L1, and GFAP are analyzed by sandwich ELISA or western blot by using biomarker specific antibodies.

`CN1CC=C(c2ccccc2)CC1` [MPTP]: the “GFAP level relative to control animals” value was “increase”, the “S-100b level relative to control animals” value is given as “increase” and the “UCH-L1 level relative to control animals” value is reported as “increase”.

For `N.N.[Cl][Pt][Cl]` [Cisplatin, cisplatin], the “GFAP level relative to control animals” value was “increase”, the “S-100b level relative to control animals” value was “increase” and the “UCH-L1 level relative to control animals” value was “increase”.

Consider `CN[C@@H](C)Cc1ccccc1` [methamphetamine], for which the “S-100b level relative to control animals” value is reported as “Modest increase”. For the same compound, where the note is “rat, in vivo”, the “CSF concentration of GFAP relative to control animals” value is “increase” and the “CSF concentration of UCH-L1 relative to control animals” value is listed as “increase”.

For `C=C(C)[C@H]1CN[C@H](C(=O)O)[C@H]1CC(=O)O` [kainic acid], the “GFAP level relative to control animals” value is reported as “increase”, the “S-100b level relative to control animals” value was “increase” and the “UCH-L1 level relative to control animals” value is listed as “increase”.
